Experimental data: US12429487B2, “Neurofilament protein for guiding therapeutic intervention in amyotrophic lateral sclerosis” (Biogen MA Inc., priority 2018, dated 2025)
Entries after “also recorded” stand apart in the source; their conditions may differ. Read-outs that look alike come from different tables or passages of the source. Oligonucleotides are written 5' to 3', each unit as a sugar letter and its base; * is a phosphorothioate linkage, no mark a phosphodiester; rarer units and linkages stand in square brackets, end groups in braces. Plain capitals give the bases only. e = 2'-O-(2-methoxyethyl) (MOE); k = constrained ethyl (cEt); [5mC] = 5-methylcytosine; d = 2'-deoxy (DNA)

Assays:
[1] = tested on: ALS patients; settings: EMPOWER, 12 months, vs placebo
From the text: EMPOWER was a Phase 3 global randomized clinical trial (RCT) of the safety and efficacy of dexpramipexole in the treatment of ALS conducted at 81 academic medical centers enrolling 943 adults (see Cudkowicz M E et al., Lancet Neurol. 2013 November; 12(11):1059-67).
The subjects included in the EMPOWER study had to have a diagnosis of possible, probable, or definite ALS, have had ALS symptoms for fewer than 24 months, have an SVC value that was at least 65% of the predicted value, and no significant comorbidities.
In the study, the subjects were allocated in a 1:1 ratio to treatment with dexpramipexole or placebo for 12 months, […]

[2] = tested on: plasma neurofilament heavy chain (NFH); settings: EMPOWER, vs placebo, FIG. 2
From the text: Determination of baseline as well as longitudinal plasma neurofilament heavy chain (NFH) concentrations in the clinical trial of dexpramipexole, EMPOWER, and assessment of their relationship to clinical outcomes including survival and the rates of decline of muscle strength (assessed by hand-held dynamometry [HHD]), slow vital capacity (SVC), and ALSFRS-R).
Plasma neurofilament heavy (NFH), measured using a NFH assay on the Ella, an automated microfluidic cartridge based immunoassay platform from Protein Simple.

[3] = tested on: people with ALS; settings: cited from earlier work
[4] = tested on: SOD1 ALS patients; assay: SAD/MAD clinical trial in SOD1 ALS patients: ALSFRS-R and SVC; format: in vivo, human; settings: vs placebo
Procedure: (§1) A double-blind, randomized, placebo-controlled, clinical trial was conducted in SOD1 ALS patients. The trial involved single and multiple ascending dose (SAD/MAD) studies. In the MAD portion, participants received 5 doses of study drug over approximately 3 months. Fifty adult participants with SOD1 mutation were randomized 3:1 (ASO: placebo) per cohort to receive 20 mg, 40 mg, 60 mg, or 100 mg of placebo or a SOD-1 decreasing ASO-ASO1 (SEQ ID NO:8).

[5] = tested on: serum phospho-neurofilament heavy chain (pNfH); assay: SOD1^G93A mice: serum pNfH by ELLA microfluidic ELISA; format: in vivo, mouse; settings: single dose 300 μg at 5 weeks; 8 and 10 weeks of age; vs control ASO, FIG. 4
Procedure: pNfH increases in CSF and serum in ALS rodent models, human patients with ALS, and other neurodegenerative diseases. To look at phosphorylated neurofilament heavy chain levels in the serum, blood was collected at baseline (5 weeks) before i.e.v. injection, and then again at 8 and 10 weeks of age from the SOD1^G93A mutant mice injected once at 5 weeks of age with a single dose of 300 μg ASO1). pNfH serum levels were measured through the ELLA microfluidic ELISA platform (Protein Simple) according to the manufacturer's instructions. Briefly, a maximum of 100 μl blood was collected through facial vein puncture at the indicated time points. Serum samples were prepared by centrifugation of BD Vacutainer SST tubes (BD Diagnostics) and stored at −80° C. until used.

[6] = tested on: SOD1^G93A mice; assay: SOD1^G93A mice: CMAP and neuromuscular junction innervation; format: in vivo, mouse; settings: for compound muscle action potential (CMAP): 100 μg intraventricularly once at 5 weeks of age, next 12 weeks
From the text: To test whether SOD1 reduction by ASO could affect markers of disease, […] in compound muscle action potential (CMAP), neuromuscular junction innervation, and serum phospho-neurofilament heavy chain (pNfH) levels. In SOD1^G93Amice, CMAP declines over time, preceding the loss of motor neurons.

[7] = tested on: SOD1^G93A mice; assay: SOD1^G93A mice: weight, rotarod, survival after i.c.v. bolus; format: in vivo, mouse; settings: 300 μg bolus at 50 and 94 days of age
Procedure: To investigate whether a SOD1-lowering ASO strategy could delay disease parameters, SOD1^G93A mice (B6.CgTg(SOD1*G93A)Gur/J) were infused Intracerebroventricular […] with bolus doses of 300 μg ASO1 at 50 and 94 days of age. Weight and performance on rotarod were tested weekly.

[8] = tested on: pNfH and NfL; assay: SAD/MAD clinical trial in SOD1 ALS patients: plasma and CSF pNfH and NfL; format: in vivo, human
Procedure: as §1
Baseline pNfH and NfL levels were highest in fast progressing patients and correlated with disease activity (as measured by ALSFRS-R prerandomization slope). […] In FIGS. 7A-7D, overall placebo (n=12) is the solid line at, near, or above the 1.0 baseline measure throughout the study; overall ASO1 100 mg treatment (n=10) is the solid line declining below the 1.0 baseline measure throughout the study; fast progressing placebo (n=4) is the dotted line at, near, or above the 1.0 baseline measure throughout the study; and fast progressing ASO1 100 mg treatment (n=4) is the dotted line declining below the 1.0 baseline measure throughout the study. pNfH levels were assessed using the ProteinSimple™ Simple Plex Ella immunoassay. NfL levels were assessed using the Quanterix Simoa NfL Advantage assay.

[9] = tested on: CSF SOD1 protein; assay: SAD/MAD clinical trial in SOD1 ALS patients: CSF SOD1 concentration; format: in vivo, human; settings: 40 mg, 60 mg and 100 mg cohorts; maximal at 100 mg, Day 85
Procedure: as §1

[10] = tested on: SOD1 mRNA; assay: SOD1 mRNA lowering in human neuroblastoma cell line SH-SY5Y; format: cell-based; settings: SH-SY5Y cells
[11] = tested on: SOD1^G93A rats; assay: SOD1^G93A rats: weight loss onset and survival after intrathecal bolus; format: in vivo, rat; settings: 1000 μg intrathecal bolus, 65-day-old rats
Procedure: SOD1^G93A rats (Taconic Biosciences, model 2148) received a 30-μl intrathecal bolus injection via polyethylene catheter placed between the L3 and L5 vertebrae of the lumber spinal cord. […] All ASOs were diluted in aCSF. All treatment groups were sexual phenotype- and litter-matched to control for drift in copy count or sexual phenotype-induced variances.

CCCN[C@@H]1CCc2nc(N)sc2C1 [dexpramipexole]
ALS symptoms / clinical efficacy ([1]; listed as depramipexole): did not reduce ALS symptoms
ALS symptoms / clinical efficacy ([1]; listed as dexpramiexole): without clinical efficacy
longitudinal plasma NFH course [2]: no difference

CC1=NN(c2ccccc2)C(=O)C1 [edaravone]
disease progression / decline in daily functioning [3]: reduction the decline in daily functioning
side effects [3]: bruising, gait disturbance, hives, swelling and shortness of breath

Nc1nc2ccc(OC(F)(F)F)cc2s1 [riluzole]
disease progression / decline in daily functioning [3]: appears to slow the disease's progression in some people with ALS
side effects [3]: dizziness, gastrointestinal conditions and liver function changes

CAoGGoATACATTTCTACoAGoCT (antisense CAGGATACATTTCTACAGCT; modified backbone linkages at marked places, type not given here) [ASO1]
clinical decline ([4]; patients with fast-progressing SOD1 mutations): slowing of clinical decline
functional decline (ALSFRS-R) ([4]; FIG. 6A): slowing of functional decline
decline in respiratory function (SVC) ([4]; FIG. 6B): slowing of decline in respiratory function
serum pNfH levels [5]: lower levels of pNfH
compound muscle action potential (CMAP) [6]: maintained CMAP
innervation of the tibialis anterior muscles ([6]; single dose 300 μg at 5 weeks of age, FIG. 3): maintained innervation
maintained weight, days longer than inactive ASO [7]: 26 days
median survival longer compared with inactive ASO [7]: 37 days
extension of survival ([7]; vs inactive ASO): 22%
performance on rotarod ([7]; vs inactive ASO): performed better on rotarod
plasma pNfH levels ([8]; 100 mg over time vs placebo, FIG. 7A): reduction
plasma NfL levels ([8]; 100 mg over time vs placebo, FIG. 7B): reduction
CSF NfL levels ([8]; 100 mg over time vs placebo, FIG. 7D): reduction
CSF pNfH levels ([8]; 100 mg vs placebo, overall): Lowering of CSF pNfH; also recorded: reduction
CSF pNfH levels ([8]; patients with fast-progressing SOD1 mutations, vs placebo): reduction in CSF pNfH levels
CSF SOD1 concentrations, change from baseline [9]: Reductions from baseline
SOD1 mRNA [10]: potently lowered SOD1 mRNA in a dose-dependent manner
maintained weight, days longer than aCSF [11]: 70 days

CCGTCGCCCTTCAGCACGCA (antisense e[5mC]*e[5mC]*eG*eT*e[5mC]*dG*d[5mC]*d[5mC]*d[5mC]*dT*dT*d[5mC]*dA*dG*d[5mC]*eA*e[5mC]*eG*e[5mC]*eA) [compound 333611, reference compound]
onset of weight loss, median [11]: 139 days

CCoToAoTAGGACTATCCAoGoGoAA (antisense CCTATAGGACTATCCAGGAA; chemically modified at marked places, type not given here) [Inactive ASO (in vivo), reference compound]
compound muscle action potential (CMAP) [6]: reduced by more than half
denervation of muscle endplates ([6]; tibialis anterior, FIG. 3): more than 75%

TToAoATGTTTATCAoGoGAT (antisense eT*eTeAeA*dT*dG*dT*dT*dT*dA*dT*d[5mC]*kAkGeG*eA*eT) [ASO2]
SOD1 mRNA [10]: potently lowered SOD1 mRNA in a dose-dependent manner
maintained weight, days longer than aCSF [11]: 67 days
